Source: US20210154173A1, “PHARMACEUTICAL COMPOSITION INCLUDING CLAVULANIC ACID AND VALPROIC ACID, METHOD FOR TREATMENT OF EPILEPSY SEIZURE, AND METHOD FOR TREATMENT OF EPILEPSY-ASSOCIATED MOTOR SYMPTOM AND COGNITIVE IMPAIRMENT” (Arthur Wisdom Technology Consultants Ltd., priority 2019, published 2021)

Legend:
Format in all cases: in vivo, Wistar male rats
[1] = system: epilepsy rats (PTZ induced); assay: Object recognition test (trial D); settings: 17th day
Procedure: (§1) Wistar male rats (8 week-old) purchased from BioLASCO Taiwan Co., Ltd were used. The rats were housed in an animal room with constant temperature of 21-24° C., where was kept on a 12-hours light and 12-hours dark cycle. The rats were housed and kept on free diet and water.
(§2) 3 days before the trials, motor functions of the rats were tested by the rotarod test. On the 1st, 3rd, 5th, 7th, 9th, 11th and 13th days, pentylenetetrazol (PTZ, 35 mg/kg) was IP injected to the rats to induce epilepsy rats of groups A1-A5. On the 21st day, after administration of PTZ, seizure intensity of the rats was measured.
(§3) Referring to TABLE 1, on the 7th, 8th, 9th, 10th, 11th, 12th and 13th days, clavulanic acid and/or valproic acid was IP injected to the epilepsy rats of groups A2-A5. Saline (1 mL/kg/day) was IP injected to the normal rats of group A0, as well as the epilepsy rats of group A1.
On the 14th day, the motor function of the rats of groups A0-A5 was tested by rotarod test. On the 15th, 16th and 17th days, the cognitive impairment on object recognition ability of the rats of groups A0-A5 was tested by object recognition test. On the 18th, 19th and 20th days, the cognitive impairment on memory of the rats of groups A0-A5 was tested by passive avoidance test. […] The number of BrdU-positive cells in hippocampal dentate gyrus was calculated. […]
On the 17th day, during the test session, the rat R under the test was placed in the open box, shown as FIG. 6a, and the time spent exploring the object O1 (TO1) and the total time spent exploring the objects O1, O2 & O3 (TO1+O2+O3) were recorded, respectively. The percentage of the exploration time spent on the object O1 was calculated as (TO1/TO1+O2+O3)*100%. […] The time spent exploring the novel object O4 (TO4) and the total time spent exploring the objects O2 & O3 and the novel object O4 (TO2+O3+O4) were respectively recorded, and the percentage of the exploration time spent on the novel object O4 was calculated as […].

[2] = system: epilepsy rats (PTZ induced); assay: Seizure intensity by Racine score in PTZ-induced epilepsy rats (trial B); settings: for seizure intensity (Racine score): 9th, 11th and 13th days
Procedure: Wistar male rats (8 week-old) purchased from BioLASCO Taiwan Co., Ltd were used. The rats were housed in an animal room with constant temperature of 21-24° C., where was kept on a 12-hours light and 12-hours dark cycle. The rats were housed and kept on free diet and water. 3 days before the trials, motor functions of the rats were tested by the rotarod test. On the 1st, 3rd, 5th, 7th, 9th, 11th and 13th days, pentylenetetrazol (PTZ, 35 mg/kg) was IP injected to the rats to induce epilepsy rats of groups A1-A5. On the 21st day, after administration of PTZ, seizure intensity of the rats was measured. Referring to TABLE 1, on the 7th, 8th, 9th, 10th, 11th, 12th and 13th days, clavulanic acid and/or valproic acid was IP injected to the epilepsy rats of groups A2-A5. Saline (1 mL/kg/day) was IP injected to the normal rats of group A0, as well as the epilepsy rats of group A1. On the 1st, 3rd, 5th, 7th, 9th, 11th, 13th and 21st days, the seizure intensity of the rats of groups A0-A5 was measured by Racine score. The seizure intensity was scored according to Racine's scale as follows: 0=normal, nonepileptic activity, 1=mouth and facial movements, hyperactivity, grooming, sniffing, scratching, wet dog shakes, 2=head nodding, staring, tremor, 3=forelimb clonus, forelimb extension, 4=rearing, salivating, tonic clonic activity and 5=falling, status epilepticus.

[3] = system: epilepsy rats (PTZ induced); assay: BrdU staining of hippocampal dentate gyrus (trial F); settings: 23rd day
Procedure: as §1, §2, §3
On the 14th day, the motor function of the rats of groups A0-A5 was tested by rotarod test. On the 15th, 16th and 17th days, the cognitive impairment on object recognition ability of the rats of groups A0-A5 was tested by object recognition test. On the 18th, 19th and 20th days, the cognitive impairment on memory of the rats of groups A0-A5 was tested by passive avoidance test. Moreover, on the 22nd day, BrdU (5′-bromo-2′-deoxyuridine) was IP injected to the rats of groups A0-A5 to label the proliferating cells. On the 23rd day, the rats of groups A0-A5 were sacrificed and the coronal brain sections were collected. The sections with hippocampal dentate gyrus were used for BrdU staining. The number of BrdU-positive cells in hippocampal dentate gyrus was calculated.
On the 22nd day, BrdU was IP injected to the rats to label the proliferating cells. On the 23rd day, the rats of groups A0-A5 were sacrificed and the coronal sections of the brain were collected. The sections with hippocampal dentate gyrus were used for BrdU staining.

[4] = system: epilepsy rats (PTZ induced); assay: Rotarod test of motor function (trial C); settings: 14th day, 25 rpm for 3 minutes
Procedure: Wistar male rats (8 week-old) purchased from BioLASCO Taiwan Co., Ltd were used. The rats were housed in an animal room with constant temperature of 21-24° C., where was kept on a 12-hours light and 12-hours dark cycle. The rats were housed and kept on free diet and water. 3 days before the trials, motor functions of the rats were tested by the rotarod test. On the 1st, 3rd, 5th, 7th, 9th, 11th and 13th days, pentylenetetrazol (PTZ, 35 mg/kg) was IP injected to the rats to induce epilepsy rats of groups A1-A5. On the 21st day, after administration of PTZ, seizure intensity of the rats was measured. Referring to TABLE 1, on the 7th, 8th, 9th, 10th, 11th, 12th and 13th days, clavulanic acid and/or valproic acid was IP injected to the epilepsy rats of groups A2-A5. Saline (1 mL/kg/day) was IP injected to the normal rats of group A0, as well as the epilepsy rats of group A1. On the 14th day, the motor function of the rats of groups A0-A5 was tested by rotarod test. On the 15th, 16th and 17th days, the cognitive impairment on object recognition ability of the rats of groups A0-A5 was tested by object recognition test. On the 18th, 19th and 20th days, the cognitive impairment on memory of the rats of groups A0-A5 was tested by passive avoidance test. Moreover, on the 22nd day, BrdU (5′-bromo-2′-deoxyuridine) was IP injected to the rats of groups A0-A5 to label the proliferating cells. On the 23rd day, the rats of groups A0-A5 were sacrificed and the coronal brain sections were collected. The sections with hippocampal dentate gyrus were used for BrdU staining. The number of BrdU-positive cells in hippocampal dentate gyrus was calculated. Next, motor function of the rats of groups A0-A5 was tested by rotarod test. Specifically, in the training session, the normal rat that had not yet been induced as epilepsy rat by PTZ was used as the rat R under the test. […] 3 trials were performed with a cutoff of 5 minutes. On the 14th day, the rats of groups A0-A5 were used as the rats R under the test. […]

[5] = system: epilepsy rats (PTZ induced); assay: Passive avoidance test in shuttle box (trial E); settings: after retention session of 24 hours, p<0.05 compared to group A0
Procedure: as §1, §2, §3
On the 14th day, the motor function of the rats of groups A0-A5 was tested by rotarod test. […] The number of BrdU-positive cells in hippocampal dentate gyrus was calculated. […]
After the retention session for 24 hours, the rat R under the test was placed in the light chamber C1, and the guillotine door D was opened, as shown in FIG. 8b. The latency to entrance into the dark chamber C2 was recorded. […]

[6] = group A4: valproic acid 50 mg/kg/day IP

Row | Compound | percentage of time exploring novel object O4 versus object O1 [1, 6] | seizure intensity (Racine score) ([2]; group A4: valproic acid 50 mg/kg/day IP days 7-13) | number of BrdU-positive cells in hippocampal dentate gyrus ([3]; group A4: valproic acid 50 mg/kg/day IP, p<0.05 compared to A0) | riding time on rotarod ([4]; group A4: valproic acid 50 mg/kg/day IP, p<0.001 compared to group A0) | latency to entrance into the dark chamber C2 [5, 6] | percentage of time exploring novel object O4 versus object O1 ([1]; group A2: clavulanic acid 1 mg/kg/day IP, p<0.01) | percentage of time exploring novel object O4 versus object O1 ([1]; group A3: clavulanic acid 10 mg/kg/day IP, p<0.05) | seizure intensity (Racine score) ([2]; group A2: clavulanic acid 1 mg/kg/day IP days 7-13) | seizure intensity (Racine score) after drug holiday ([2]; group A3: clavulanic acid 10 mg/kg/day IP days 7-13, not treated days 14-20, 21st day, compared to group A1 (saline)) | seizure intensity (Racine score) ([2]; group A3: clavulanic acid 10 mg/kg/day IP days 7-13) | number of BrdU-positive cells in hippocampal dentate gyrus ([3]; group A2: clavulanic acid 1 mg/kg/day IP, no difference compared to group A0) | number of BrdU-positive cells in hippocampal dentate gyrus ([3]; group A3: clavulanic acid 10 mg/kg/day IP, no difference compared to group A0) | riding time on rotarod ([4]; group A2: clavulanic acid 1 mg/kg/day IP, no difference between group A0) | riding time on rotarod ([4]; group A3: clavulanic acid 10 mg/kg/day IP, p<0.05 compared to group A1) | latency to entrance into the dark chamber C2 ([5]; group A2: clavulanic acid 1 mg/kg/day IP)
1 | CCCC(CCC)C(=O)O [valproic acid] | cannot improve the cognitive decline on recognition ability | did not decrease | cannot improve the defect on neurogenesis | cannot improve the motor coordination and balance problems | cannot improve the cognitive impairment on memory | – | – | – | – | – | – | – | – | – | –
2 | O=C(O)[C@H]1/C(=C/CO)O[C@@H]2CC(=O)N21 [clavulanic acid] | – | – | – | – | – | can recognize the novel object O4 | can recognize the novel object O4 | 3-4 | still significantly lower | decreases | can recover the number of BrdU-positive cells to normal | can recover the number of BrdU-positive cells to normal | significantly increase the riding time | significantly increase the riding time | also decreases
